Each block holds one compound with its values, some of them ahead of it. Active and inactive are the calls of the source.
Tests used:
[1] = molecular target: T1, Methionyl-tRNA synthetase, putative (Trypanosoma brucei brucei, UniProt Q38C91); format: functional, Trypanosoma brucei brucei strain 927/4 GUTat10.1
T1 sequence (Q38C91 whole entry): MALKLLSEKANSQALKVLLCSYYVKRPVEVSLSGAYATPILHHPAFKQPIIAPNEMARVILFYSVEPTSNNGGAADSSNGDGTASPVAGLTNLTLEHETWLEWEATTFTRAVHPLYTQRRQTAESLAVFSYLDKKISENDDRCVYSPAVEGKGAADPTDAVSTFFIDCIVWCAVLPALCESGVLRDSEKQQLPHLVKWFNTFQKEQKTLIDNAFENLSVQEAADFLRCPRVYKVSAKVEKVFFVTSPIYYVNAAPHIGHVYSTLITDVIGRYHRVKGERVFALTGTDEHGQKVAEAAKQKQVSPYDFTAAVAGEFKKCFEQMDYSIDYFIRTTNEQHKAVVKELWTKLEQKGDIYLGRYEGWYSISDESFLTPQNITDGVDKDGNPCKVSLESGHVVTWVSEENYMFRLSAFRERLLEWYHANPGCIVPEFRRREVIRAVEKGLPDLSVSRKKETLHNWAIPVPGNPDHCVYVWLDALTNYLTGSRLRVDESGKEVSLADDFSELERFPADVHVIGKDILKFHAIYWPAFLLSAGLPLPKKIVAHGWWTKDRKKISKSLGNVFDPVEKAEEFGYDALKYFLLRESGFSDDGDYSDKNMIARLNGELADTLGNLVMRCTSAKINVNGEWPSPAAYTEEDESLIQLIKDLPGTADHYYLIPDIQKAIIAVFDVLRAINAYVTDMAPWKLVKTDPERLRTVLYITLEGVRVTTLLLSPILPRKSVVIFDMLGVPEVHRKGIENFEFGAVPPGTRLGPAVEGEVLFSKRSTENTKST

[2] = Counterscreen for inhibitors of Trypanosoma brucei methionyl tRNA synthetase (MetRS): Luminescence-based cell-based high throughput dose response assay to identify compounds that are cytotoxic to Jurkat human T lymphocyte cells.; format: functional
[3] = molecular target: T1, Methionyl-tRNA synthetase, putative; format: functional, Trypanosoma brucei brucei strain 927/4 GUTat10.1; remark: listed apart in the source
[4] = Late stage counterscreen for inhibitors of Trypanosoma brucei methionyl tRNA synthetase (MetRS): Luminescence-based cell-based high throughput dose response assay to identify compounds that are cytotoxic to Jurkat human T lymphocyte cells.; format: functional
Jurkat = experiment: blockers of NF-kB activation in T cells – Jurkat, luciferase reporter, luminescence, B- and T-cell, dose response (AID 489004); format: functional, cell-based; conditions: Homo sapiens;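 also: NF-kB luciferase reporter Jurkat cells stimulated with PMA plus ionomycin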
[5] = HEK-293T viability loss, compound-treated – cell-based, uHTS hits, cytotoxicity control for B/T-cell NF-kB inhibitor project, dose response (AID 489019); format: functional;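 also: IC50 reflects cytotoxicity as loss of cell viability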
Cytochrome P450 2C19 = Cytochrome P450 2C19 (Homo sapiens, UniProt P33261); experiment: Cytochrome panel assay with activity outcomes. Panel member name: p450-cyp2c19 Compounds with AC50 equal or less than 10 uM are considered active; format: functional; conditions: read-out: AC50
INS1 = experiment: INS-1E survival protection against cytokine death – cell-based, luminescence, retest, dose response (AID 449756); format: functional; conditions: Rattus norvegicus;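 also: cell death triggered by IL-1 beta plus TNF-alpha plus IFN-gamma mixture; protective hits raise ATP signal compared with cytokine alone wells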
[6] = blockers of HIV-1 envelope-mediated cell-cell fusion – cherry-pick, dose response (AID 652057); format: functional, cell-based
Galanin receptor type 3 = Galanin receptor type 3 (Homo sapiens, UniProt O60755); experiment: Fluorescence-based cell-based primary high throughput dose response assay to identify antagonists of the Galanin Receptor 3 (GalR3).; format: functional
cells [7] = format: functional, cell-based; conditions: HEK-CNG
[8] = blockers of HIV-1 ZM109 envelope-driven cell-cell fusion – HeLa effector, CEM target cells, luciferase, cherry-pick, dose response (AID 652058); format: functional, cell-based;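 also: luciferase signal from HIV-1 Env mediated cell-cell fusion of effector and target cells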
[9] = HIV-1 AD8 envelope cell-cell fusion blockers – cherry-pick, dose response (AID 652062); format: functional, cell-based;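 also: luciferase signal from cell-cell fusion driven by HIV-1 clade B AD8 Env; potency is for inhibitors of fusion seen as a drop in luminescence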
[10] = molecular target: COUP transcription factor 2 (Homo sapiens, UniProt P24468); experiment: Luminescence-based cell-based high throughput dose response assay to identify inhibitors of COUP-TFII (NR2F2).; format: functional;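 also: HEK293 cells transiently cotransfected with COUP-TFII expression vector and reporter; luciferase reporter luminescence driven by COUP-TFII from the pX2-168 reporter plasmid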
Cytochrome P450 3A4 = Cytochrome P450 3A4 (Homo sapiens, UniProt P08684);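 also: CYP3A4 tested as one member of a cytochrome P450 panel screen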
[11] = molecular target: NAD-dependent protein deacylase sirtuin-5, mitochondrial (Homo sapiens, UniProt Q9NXA8); experiment: sirtuin-5 deacylation blockers, concentration series – biochemical, fluorescence imaging, cherry-pick, set 5, dose response (AID 720591);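 also: desuccinylation of succinyl peptide AMC substrate read as fluorescence after trypsin release; potency of inhibitors that lower fluorescence and may act on trypsin instead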
Bcl-2-like protein 10 = Bcl-2-like protein 10 (Homo sapiens, UniProt Q9HD36); experiment: Bcl-B/TR3 peptide binding disruption – biochemical, fluorescence polarization, FITC-TR3 peptide, selectivity assay for Bfl-1 inhibitor project, primary screen (AID 748);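 also: fluorescence polarization from a fluorescein-labelled TR3 peptide binding purified Bcl-B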
[12] = IC50 of Artemis nuclease activity blockers – biochemical, fluorescence intensity, dose response (AID 720701); format: functional;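 also: Artemis endonuclease enzyme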
HeLa = experiment: ATP-based viability loss in HeLa cells – cell-based, CellTiter-Glo luminescence, cherry-pick samples, cytotoxicity control for MITF activator project, dose response (AID 540259); format: functional; conditions: Homo sapiens
[13] = viability loss in HepG2 liver cells – cell-based, ATP luminescence, cherry-pick, set 6, cytotoxicity control, dose response (AID 1053125); format: functional
cells [14] = conditions: HEK293
[15] = viability inhibitors of stage V gametocytes – luminescence, dose response (AID 1117278); format: functional, cell-based;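 also: gametocytes exposed to compound for 24 hours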
[16] = viability loss in human Jurkat cells – cell-based, luminescence, cytotoxicity control for P. falciparum gametocyte viability project, dose response (AID 1117277); format: functional;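 also: potency reflects loss of cellular ATP meaning fewer viable cells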
Kallikrein-7 = Kallikrein-7 (Homo sapiens, UniProt P49862); experiment: Fluorescence Intensity-based biochemical primary high throughput dose response assay to identify activators of kallikrein-7 (K7) zymogen.
Paired box protein Pax-8 = Paired box protein Pax-8 (Homo sapiens, UniProt Q06710); experiment: PAX8 transcriptional activity inhibition in RMG-I – RMG-I cells, luciferase, cherry-pick, dose response (AID 687027); format: functional, cell-based;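 also: luciferase reporter driven by Pax8 target thyroperoxidase promoter measured by SteadyGlo luminescence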
[17] = toxicity toward immortalized ovarian surface epithelium – cell-based, plate reader, dry powder samples, cytotoxicity control for PAX8 inhibitor project, dose response (AID 743045); format: functional
[18] = A2780 cell killing – plate reader, dry powder samples, cytotoxicity control, dose response (AID 743046); format: functional, cell-based
[19] = OVCAR-3 cell viability loss – plate reader, dry powder samples, PAX8 inhibitor project, dose response (AID 743044); format: functional, cell-based
[20] = IGROV1 cell killing – plate reader, dry powder samples, PAX8 inhibitor project, dose response (AID 743043); format: functional, cell-based; conditions: IGROV-1
[21] = OVCAR8 cell viability loss – plate reader, dry powder samples, PAX8 project, dose response (AID 743197); format: functional, cell-based; conditions: OVCAR-8

Sequence of Bcl-2-like protein 10 (Q9HD36 whole entry): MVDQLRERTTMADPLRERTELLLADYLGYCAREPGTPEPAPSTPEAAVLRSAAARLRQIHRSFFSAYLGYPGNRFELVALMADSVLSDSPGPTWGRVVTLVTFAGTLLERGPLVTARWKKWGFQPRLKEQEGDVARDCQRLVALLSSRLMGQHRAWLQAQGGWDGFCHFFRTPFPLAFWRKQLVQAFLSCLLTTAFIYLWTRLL
Sequence of Cytochrome P450 3A4 (P08684 whole entry): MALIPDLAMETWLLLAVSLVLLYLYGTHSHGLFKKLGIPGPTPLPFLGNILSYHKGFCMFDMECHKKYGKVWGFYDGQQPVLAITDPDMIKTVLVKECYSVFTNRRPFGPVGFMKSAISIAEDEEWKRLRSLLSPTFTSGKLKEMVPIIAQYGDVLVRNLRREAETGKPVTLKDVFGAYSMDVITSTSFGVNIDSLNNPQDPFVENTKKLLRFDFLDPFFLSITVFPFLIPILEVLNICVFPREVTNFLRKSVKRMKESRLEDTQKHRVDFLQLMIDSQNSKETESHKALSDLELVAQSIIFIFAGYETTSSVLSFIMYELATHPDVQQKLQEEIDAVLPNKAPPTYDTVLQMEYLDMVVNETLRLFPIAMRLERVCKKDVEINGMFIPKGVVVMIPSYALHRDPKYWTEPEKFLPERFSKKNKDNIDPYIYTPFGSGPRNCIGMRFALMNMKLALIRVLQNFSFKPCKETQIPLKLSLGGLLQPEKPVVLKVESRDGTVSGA
Sequence of Cytochrome P450 2C19 (P33261 whole entry): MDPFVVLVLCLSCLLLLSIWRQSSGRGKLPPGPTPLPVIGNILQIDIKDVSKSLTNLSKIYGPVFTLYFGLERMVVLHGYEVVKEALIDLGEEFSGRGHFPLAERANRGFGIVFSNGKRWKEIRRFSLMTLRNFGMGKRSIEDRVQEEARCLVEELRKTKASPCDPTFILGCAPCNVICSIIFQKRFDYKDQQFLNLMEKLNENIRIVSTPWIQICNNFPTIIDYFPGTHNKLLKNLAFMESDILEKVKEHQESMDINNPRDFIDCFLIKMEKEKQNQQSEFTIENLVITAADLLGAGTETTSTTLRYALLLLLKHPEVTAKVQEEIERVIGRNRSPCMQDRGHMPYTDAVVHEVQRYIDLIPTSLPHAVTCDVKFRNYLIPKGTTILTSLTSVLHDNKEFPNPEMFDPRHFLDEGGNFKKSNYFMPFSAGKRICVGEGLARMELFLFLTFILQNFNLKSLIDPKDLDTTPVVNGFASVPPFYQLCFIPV
Sequence of NAD-dependent protein deacylase sirtuin-5, mitochondrial (Q9NXA8 whole entry): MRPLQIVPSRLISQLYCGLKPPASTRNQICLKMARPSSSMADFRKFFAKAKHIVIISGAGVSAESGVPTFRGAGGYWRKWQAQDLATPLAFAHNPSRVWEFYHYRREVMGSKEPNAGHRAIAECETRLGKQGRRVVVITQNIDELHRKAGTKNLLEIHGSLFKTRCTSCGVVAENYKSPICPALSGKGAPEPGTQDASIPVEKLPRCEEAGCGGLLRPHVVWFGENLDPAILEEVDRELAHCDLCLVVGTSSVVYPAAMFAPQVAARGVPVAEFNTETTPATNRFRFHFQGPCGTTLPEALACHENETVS
Sequence of Kallikrein-7 (P49862 whole entry): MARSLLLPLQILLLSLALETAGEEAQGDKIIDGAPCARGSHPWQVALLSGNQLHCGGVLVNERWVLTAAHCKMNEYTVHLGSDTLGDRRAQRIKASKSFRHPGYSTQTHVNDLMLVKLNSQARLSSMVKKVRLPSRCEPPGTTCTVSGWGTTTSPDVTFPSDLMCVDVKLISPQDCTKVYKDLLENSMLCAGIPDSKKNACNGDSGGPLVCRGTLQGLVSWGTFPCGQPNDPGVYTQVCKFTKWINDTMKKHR
Sequence of Galanin receptor type 3 (O60755 whole entry): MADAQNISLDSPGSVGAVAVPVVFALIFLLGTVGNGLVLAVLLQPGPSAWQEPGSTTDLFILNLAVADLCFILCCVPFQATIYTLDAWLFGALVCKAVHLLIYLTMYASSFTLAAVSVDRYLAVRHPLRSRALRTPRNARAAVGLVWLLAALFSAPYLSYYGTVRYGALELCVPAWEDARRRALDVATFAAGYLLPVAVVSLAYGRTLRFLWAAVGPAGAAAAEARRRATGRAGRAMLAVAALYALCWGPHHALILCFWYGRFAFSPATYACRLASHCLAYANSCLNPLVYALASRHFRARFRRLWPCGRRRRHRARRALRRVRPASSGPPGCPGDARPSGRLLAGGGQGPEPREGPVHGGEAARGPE
Sequence of Paired box protein Pax-8 (Q06710 whole entry): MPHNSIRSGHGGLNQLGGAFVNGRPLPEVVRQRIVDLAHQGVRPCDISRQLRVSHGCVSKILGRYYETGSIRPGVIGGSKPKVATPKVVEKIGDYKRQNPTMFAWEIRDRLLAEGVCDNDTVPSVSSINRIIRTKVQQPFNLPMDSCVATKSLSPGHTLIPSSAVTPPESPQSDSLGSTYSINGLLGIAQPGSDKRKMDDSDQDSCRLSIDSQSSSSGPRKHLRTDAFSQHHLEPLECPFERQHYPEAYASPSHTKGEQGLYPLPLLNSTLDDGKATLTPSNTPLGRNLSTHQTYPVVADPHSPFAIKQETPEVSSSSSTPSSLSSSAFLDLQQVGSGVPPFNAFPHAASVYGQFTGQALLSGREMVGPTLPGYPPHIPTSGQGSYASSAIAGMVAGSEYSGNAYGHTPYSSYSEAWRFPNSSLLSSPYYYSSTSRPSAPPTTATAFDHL
Sequence of COUP transcription factor 2 (P24468 whole entry): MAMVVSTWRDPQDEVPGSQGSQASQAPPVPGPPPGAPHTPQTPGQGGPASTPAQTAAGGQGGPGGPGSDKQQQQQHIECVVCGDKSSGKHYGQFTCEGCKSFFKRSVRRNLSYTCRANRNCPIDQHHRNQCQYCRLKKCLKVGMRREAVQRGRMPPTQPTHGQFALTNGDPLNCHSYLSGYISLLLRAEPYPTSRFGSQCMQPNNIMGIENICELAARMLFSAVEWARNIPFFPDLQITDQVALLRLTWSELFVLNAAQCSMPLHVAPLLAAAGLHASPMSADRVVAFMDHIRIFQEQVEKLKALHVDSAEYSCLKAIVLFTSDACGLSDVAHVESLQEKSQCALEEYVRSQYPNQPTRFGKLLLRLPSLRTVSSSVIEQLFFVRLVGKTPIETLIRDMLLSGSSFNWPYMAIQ

SMILES: CC(=O)c1ccc(N2CCN(C(=O)CCCn3c(=O)[nH]c4ccc(Br)cc4c3=O)CC2)cc1
- IC50 [1]: 1.48 µM (active)
- IC50 [2]: 53.2 µM (inactive)
- IC50 [3]: 0.579 µM (active)
- IC50 [4]: 25.9 µM (inactive)

SMILES: Cc1cc(N2CCN(c3nc4ccccc4s3)CC2)n2ncnc2n1
- IC50 (Jurkat): > 80 µM (inactive)
- IC50 [5]: > 80 µM (inactive)
- AC50 (Cytochrome P450 2C19): 14.1 µM (inconclusive)
- AC50 (INS1): 5.06 µM (active)
- AC50 [6]: 4.63 µM (active)
- IC50 (Galanin receptor type 3): 1.43 µM (active)
- EC50 (cells [7]): > 29.9 µM (inactive)
- AC50 [8]: 6.41 µM (active)
- AC50 [9]: 5.3 µM (active)
- IC50 [10]: 6.41 µM (active)
- AC50 (Cytochrome P450 3A4): 39.8 µM (inconclusive)

- AC50 [11]: 15.6 µM (active)
SMILES: COc1ccc(-c2csc3ncnc(O)c23)cc1

- IC50 (Bcl-2-like protein 10): 26 µM (active)
- IC50 [12]: > 20 µM (inactive)
SMILES: Cc1cc(-c2csc(N)n2)c(C)n1C

SMILES: Nc1ccc(C#Cc2ccc3c(=O)c4ccccc4oc3c2)cc1
- AC50 (HeLa): 59.6 µM (active)
- AC50 [13]: > 52 µM (inactive)
- AC50 (cells [14]): > 52 µM (inactive)

SMILES: O=C1N[C@@H](c2ccccc2)COC(=O)[C@@H](Cc2ccc(F)cc2)C/C=C\C[C@H]1CC(=O)N(CCO)Cc1ccccc1
- IC50 [15]: > 109 µM (inactive)
- IC50 [16]: 37.8 µM (inactive)

- EC50 (Kallikrein-7): 38.9 µM (inactive)
SMILES: COC(=O)c1ccc(N2C(c3cc(OC)cc(OC)c3)=Cc3ccc(-c4cccnc4)cc3C2CC(=O)C2CC2)cc1 (stereo not given)

SMILES: C[C@@H]1CCCCO[C@H](CN(C)Cc2ccncc2)[C@H](C)CN([C@@H](C)CO)C(=O)c2cc(NC(=O)NC3CCCCC3)ccc2O1
- AC50 (Paired box protein Pax-8): 11.3 µM (active)
- AC50 [17]: 36.7 µM (active)
- AC50 [18]: 36.1 µM (active)
- AC50 [19]: 18.7 µM (active)
- AC50 [20]: 25.5 µM (active)
- AC50 [21]: 68.3 µM (active)
